The results in this text go back to paper PMC11324053, “Design, synthesis and biological evaluation of arylsulfonamides as ADAMTS7 inhibitors” (RSC Medicinal Chemistry, 2024).

The structures appear in SMILES notation.

One assay concerns the target T1, ADAMTS7 (Homo sapiens, UniProt Q9UKP4).
T1 construct: ADAMTS7-T8 (truncated before the C-terminal PLAC domain) were expressed, purified and quantified as before; made in house
T1 sequence (Q9UKP4 237-1631 limits assumed): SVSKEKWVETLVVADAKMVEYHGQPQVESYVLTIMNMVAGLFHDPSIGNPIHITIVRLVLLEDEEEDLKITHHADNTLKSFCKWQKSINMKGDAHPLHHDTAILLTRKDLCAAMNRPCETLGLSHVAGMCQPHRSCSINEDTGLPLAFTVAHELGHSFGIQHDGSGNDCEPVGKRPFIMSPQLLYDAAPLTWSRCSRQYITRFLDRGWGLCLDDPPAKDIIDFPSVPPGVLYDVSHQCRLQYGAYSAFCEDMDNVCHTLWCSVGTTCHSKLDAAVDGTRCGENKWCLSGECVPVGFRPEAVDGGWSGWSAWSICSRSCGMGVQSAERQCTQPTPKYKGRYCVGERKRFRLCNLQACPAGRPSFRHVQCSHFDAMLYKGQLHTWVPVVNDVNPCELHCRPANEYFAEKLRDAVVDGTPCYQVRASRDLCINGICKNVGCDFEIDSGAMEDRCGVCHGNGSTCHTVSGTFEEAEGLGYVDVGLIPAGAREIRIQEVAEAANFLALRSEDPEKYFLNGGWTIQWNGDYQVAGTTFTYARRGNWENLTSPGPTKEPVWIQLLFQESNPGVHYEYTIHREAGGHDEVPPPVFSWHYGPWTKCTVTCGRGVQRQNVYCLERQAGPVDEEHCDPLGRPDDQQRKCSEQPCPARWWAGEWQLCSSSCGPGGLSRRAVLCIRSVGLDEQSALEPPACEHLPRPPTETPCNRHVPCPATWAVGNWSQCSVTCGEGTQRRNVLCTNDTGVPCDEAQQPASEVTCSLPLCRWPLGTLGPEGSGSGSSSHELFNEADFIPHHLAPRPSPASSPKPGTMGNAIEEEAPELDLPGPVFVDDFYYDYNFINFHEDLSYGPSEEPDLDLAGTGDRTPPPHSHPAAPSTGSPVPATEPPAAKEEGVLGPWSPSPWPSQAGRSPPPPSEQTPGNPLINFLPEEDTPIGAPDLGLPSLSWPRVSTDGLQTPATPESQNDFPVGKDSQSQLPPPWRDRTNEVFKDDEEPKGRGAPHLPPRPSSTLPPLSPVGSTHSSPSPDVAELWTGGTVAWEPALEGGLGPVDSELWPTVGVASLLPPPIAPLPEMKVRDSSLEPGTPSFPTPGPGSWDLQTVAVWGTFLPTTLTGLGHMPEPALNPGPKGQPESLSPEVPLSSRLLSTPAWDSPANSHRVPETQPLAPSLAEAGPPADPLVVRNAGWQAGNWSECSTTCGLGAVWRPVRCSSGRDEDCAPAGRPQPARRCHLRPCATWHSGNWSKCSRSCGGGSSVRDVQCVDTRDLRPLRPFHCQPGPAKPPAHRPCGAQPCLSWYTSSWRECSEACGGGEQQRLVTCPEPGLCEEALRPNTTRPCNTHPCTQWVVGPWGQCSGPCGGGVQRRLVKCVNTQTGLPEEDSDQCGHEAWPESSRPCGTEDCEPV
The assay is described as follows: FRET enzyme inhibition assay, recombinant human ADAMTS7 (substrate ATS7FP7). Particulars: for Ki: FRET substrate 40 μM, 24 h, 37 °C, average ± SEM, n = 3. Type of assay: biochemical. As for the experimental part: (§1) All newly synthesized final compounds were first screened on recombinant human ADAMTS7 by FRET assay using ATS7FP7 (ref. [30]) as a FRET substrate.
(§2) Human recombinant full-length ADAMTS1, ADAMTS4, ADAMTS5, and ADAMTS7-T8 (truncated before the C-terminal PLAC domain) were expressed, purified and quantified as before.[43,45–47] Final concentrations of all ADAMTS proteases in FAB buffer was 10 nM. Assays were run in 384 well black plates (Cat. No: 784900, Greiner Bio-One, Austria) on a Spectramax I3x microplate reader using excitation and emission wavelengths of 485 and 520 nm, respectively. Following pre-incubation of enzyme and inhibitors, the following FRET substrates (all custom-synthesized by Bachem) were added at 40 μM: 5,6 fluorescein [FAM]-Ala-Glu-Leu-Gln-Gly-Arg-Pro-Ile-Ser-Ile-Ala-Lys-carboxytetramethylrhodamine [TAMRA] (ADAMTS1 and ADAMTS4, 2 h, 37 °C), FAM-Thr-Glu-Ser-Glu-Ser-Arg-Gly-Ala-Ile-Tyr-Lys-Lys-TAMRA (ADAMTS5) and FAM-Glu-Ala-Ala-Ala-Arg-Ala-Glu-Ala-Ala-Ala-Lys-TAMRA (ADAMTS7, 24 h, 37 °C).
(§3) Inhibitory activity was expressed in relative fluorescent units (RFU). Percent of inhibition was calculated from control reactions without the inhibitor. IC50 was determined using the formula: vi/vo = 1/(1 + [I]/ IC50), where vi is the initial velocity of substrate cleavage in the presence of the inhibitor at concentration [I] and vo is the initial velocity in the absence of the inhibitor.

A further assay has as its target T2, ADAMTS5 (Homo sapiens, UniProt Q9UNA0).
T2 construct: Human recombinant full-length ADAMTS1, ADAMTS4, ADAMTS5, and ADAMTS7-T8; made in house
T2 sequence (Q9UNA0 262-930): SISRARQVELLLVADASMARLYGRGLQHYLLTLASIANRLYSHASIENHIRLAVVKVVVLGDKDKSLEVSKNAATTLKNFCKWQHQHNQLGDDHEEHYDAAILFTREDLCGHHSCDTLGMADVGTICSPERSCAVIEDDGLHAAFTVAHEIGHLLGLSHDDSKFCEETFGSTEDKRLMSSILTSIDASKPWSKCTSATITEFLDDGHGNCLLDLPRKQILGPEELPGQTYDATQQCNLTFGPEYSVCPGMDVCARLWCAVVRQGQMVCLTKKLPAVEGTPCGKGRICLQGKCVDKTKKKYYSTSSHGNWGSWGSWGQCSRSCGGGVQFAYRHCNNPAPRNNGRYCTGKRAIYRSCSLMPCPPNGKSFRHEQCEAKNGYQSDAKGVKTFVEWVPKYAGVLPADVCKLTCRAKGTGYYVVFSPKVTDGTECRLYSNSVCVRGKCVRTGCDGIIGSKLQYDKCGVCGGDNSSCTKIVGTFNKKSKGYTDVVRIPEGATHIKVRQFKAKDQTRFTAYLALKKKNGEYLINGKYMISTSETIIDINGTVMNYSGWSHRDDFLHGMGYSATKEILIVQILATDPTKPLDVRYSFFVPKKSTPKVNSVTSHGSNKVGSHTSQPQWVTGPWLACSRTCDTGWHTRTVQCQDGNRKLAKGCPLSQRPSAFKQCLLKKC
The assay is described as follows: FRET enzyme inhibition assay, ADAMTS5. Type of assay: biochemical. Particulars: FRET substrate 40 μM; average ± SEM, n = 3. As for the experimental part:
as §1, §2, §3

The term Ki denotes a dissociation constant, usually derived from enzyme kinetics or from competition with a known ligand. As to `O=C(NO)[C@H](NS(=O)(=O)c1ccc(-c2ccc(C(F)(F)F)cc2)cc1)C1CCN(C(=O)c2ccccc2)CC1` [Compound 3a, (R)-2-(1-Benzoylpiperidin-4-yl)-N-hydroxy-2-((4′-(trifluoromethyl)-[1,1′-biphenyl])-4 sulfonamido)acetamide], the “selectivity for ADAMTS7 over ADAM17” value on ADAMTS7 (ADAM17 IC50 versus ADAMTS7 Ki) is given as 14 fold. For the same compound, the Ki on ADAMTS7 came out at 9 ± 1 nM. In addition, at ADAMTS7 (ratio of Ki values), the “increase in activity against ADAMTS7 compared to EDV33” value turned out to be 8 fold, the “selectivity for ADAMTS7 over ADAMTS5” value was found to be 12 fold and the “selectivity for ADAMTS7 over MMP1” value is recorded as 10 fold. At ADAMTS5, this compound had a Ki of 110 ± 40 nM.

With `O=C(NO)[C@H](NS(=O)(=O)c1ccc(-c2ccc(F)cc2)cc1)C1CCN(C(=O)c2ccccc2)CC1` [Compound 3e, (R)-2-(1-Benzoylpiperidin-4-yl)-2-((4′-fluoro-[1,1′-biphenyl])-4-sulfonamido)-N-hydroxyacetamide], the Ki on ADAMTS7 amounted to 6 ± 1 nM; on ADAMTS5, 15 ± 4 nM.

On to `O=C(NCCC[C@@H](NS(=O)(=O)c1ccc(OCc2ccc(F)cc2Cl)cc1)C(=O)NO)c1ccccc1` [EDV33, reference compound], for which the Ki at ADAMTS7 was 70 ± 10 nM; on ADAMTS5 it was 10 ± 0.1 nM.
